Assay results as given in publication PMC9403987 (Frontiers in Oncology, 2022).

How the values were obtained:
NCI-H1975 = test: Subcutaneous NCI-H1975 non-small cell lung cancer xenograft; type: in vivo, BALB/c nude mice; conditions: 22 days, measured day 16
Experimental: (§1) The efficacy of GLR2007 was evaluated in human GBM and breast cancer orthotopic cell-line-derived xenografts in NOD/SCID mice (Shanghai Lingchang Biotechnology Co. Ltd, Shanghai, China) and BALB/c nude mice (Shanghai Sino-British SIPPR/BK Laboratory Animal Co. Ltd, Shanghai, China), and human lung, colorectal, and liver cancer subcutaneous cell-line-derived xenografts in BALB/c nude mice (Nanjing University National Resource Center, Nanjing, China, or Beijing Anikeeper Biotech Co., Beijing, China). Mice were maintained in humidity- and temperature-controlled conditions with food and water available ad libitum. For subcutaneous models, female BALB/c nude mice were inoculated at 4–8 weeks old with 3×10^6–1×10^7 tumor cells (see Table 1 for xenograft model cell types) in the right flank for tumor development. Randomization was performed when the mean tumor volume reached 118–171 mm^3.

[1] = mouse, in vivo, po, 30 mg/kg; cited from earlier work
U87-luc tumor cells = test: Orthotopic U87-luc glioblastoma xenograft; type: in vivo, BALB/c nude mice; conditions: for TGI (%) / Increase in median survival time (%): 42 days; for TGI (%): measured day 21, bioluminescence; for Increase in median survival time (%): versus vehicle group
Experimental: as §1, with “libitum.” for “libitum. For subcutaneous models, female BALB/c nude mice were inoculated at 4–8 weeks old with 3×10^6–1×10^7 tumor cells (see Table 1 for xenograft model cell types) in the right flank for tumor development. Randomization was performed when the mean tumor volume reached 118–171 mm^3.”
In a GBM orthotopic xenograft study, female BALB/c nude mice were inoculated intracranially at 6–8 weeks old with 3×10^5 U87-luc tumor cells plus Matrigel (Corning Life Sciences, Tewksbury, MA, USA) in a 4:1 ratio in PBS at the right frontal lobe. Tumor growth was quantified using intraperitoneal administration of 150 mg/kg luciferin to anesthetized mice, and tumor bioluminescence was measured using an IVIS Lumina II imaging system (PerkinElmer Inc.). In one study, mice were randomized at day 6 after tumor implantation (mean bioluminescence of 2.81×10^7 photons/sec), and in the other, mice were randomized at day 14 or day 15 (mean bioluminescence of 7.49×10^6 photons/sec).
Statistical analysis of differences in mean tumor volume among groups was conducted via an independent samples t-test or one-way analysis of variance (ANOVA; two-sided Dunnett’s test). For comparison among three or more groups, a one-way ANOVA was performed. Multiple comparison procedures were applied after ANOVA when significant F-statistics (ratio of treatment variance to error variance) were obtained. Comparisons between groups were carried out using the Games test. P<0.05 was considered to be statistically significant. Survival times were analyzed using the Kaplan–Meier method, with curves constructed for each group and the log-rank (Mantel–Cox) test used to compare survival curves between groups. Body weight change was calculated based on the weight on the first day of dosing.

MCF-7 tumor cells = test: Orthotopic MCF-7 breast cancer xenograft; type: in vivo, NOD/SCID mice
Experimental: as §1, with “libitum.” for “libitum. For subcutaneous models, female BALB/c nude mice were inoculated at 4–8 weeks old with 3×10^6–1×10^7 tumor cells (see Table 1 for xenograft model cell types) in the right flank for tumor development. Randomization was performed when the mean tumor volume reached 118–171 mm^3.”
In two breast cancer orthotopic xenograft models, female NOD/SCID mice were subcutaneously implanted with an estrogen pellet (17β-estradiol; Innovative Research of America, Sarasota, FL, USA) one day before tumor inoculation. Mice were inoculated at 6–7 weeks old with 2×10^7 MCF-7 tumor cells plus Matrigel in a 1:1 ratio in PBS at a mammary fat pad or in the right flank. Randomization was performed when the mean tumor volume reached 135–138 mm^3.

CT26.WT = test: Cell proliferation assay; type: cell-based, Mus musculus; conditions: colorectal carcinoma, 72 hours
Experimental: To quantify cell proliferation, either the nuclei of live cells were counted following staining with 4’,6-diamidino-2-phenylindole (DAPI; Sigma-Aldrich, Burlington, MA, USA), or metabolically active cells were detected using a CellTiter-Glo assay (Promega Corporation, Madison, WI, USA). Cells from a range of human and mammalian tumor cell lines (American Type Culture Collection, Manassas, VA, USA) were seeded at 4000 cells per well in 100 μL of culture medium in a 96-well plate and incubated overnight at 37°C with 5% CO2. […] In the DAPI staining method, cells were washed using 1× phosphate-buffered saline (PBS; Gibco Thermo Fisher Scientific, Waltham, MA, USA), fixed with 4% formaldehyde, permeabilized with 0.2% Triton X-100 (Sigma-Aldrich), washed again, and stained with 1 μg/mL DAPI to visualize cell nuclei. Cells were washed with 1× PBS three times, and 100 μL 1× PBS was added to each well. Plates were scanned using an IN Cell Analyzer 2200 (GE Healthcare Life Sciences, Chicago, IL, USA) and the number of cells per well was recorded. In the CellTiter-Glo assay, 60 μL of CellTiter-Glo luminescent solution was added to each well after incubation with the test compounds, and the assay plate was scanned using a Tecan Infinite M1000 PRO microplate reader (Tecan Group AG, Männedorf, Switzerland) to record luminescent signals.

[2] = 25 mg/kg daily oral, 21 days, measured day 21, 8 mice
[3] = 25 mg/kg daily oral, 28 days, measured day 25, 10 mice

SMILES | TGI (%) (NCI-H1975; 25 mg/kg daily oral) | Kp,uu [1] | TGI (%) (U87-luc tumor cells; 150 mg/kg daily oral) | Increase in median survival time (%) (U87-luc tumor cells; 150 mg/kg daily oral) | TGI (%) (MCF-7 tumor cells; [2]) | TGI (%) (MCF-7 tumor cells; [3]) | TGI (%) (NCI-H1975; 10 mg/kg daily oral) | IC50 (CT26.WT) [nM] | TGI (%) (U87-luc tumor cells; 12.5 mg/kg daily oral) | Increase in median survival time (%) (U87-luc tumor cells; 12.5 mg/kg daily oral) | Weight loss, GLR2007 versus abemaciclib groups (U87-luc tumor cells; orthotopic U87-luc xenograft mice treated for 42 days) | TGI (%) (MCF-7 tumor cells; 10 mg/kg daily oral, 21 days, measured day 21, 8 mice) | TGI (%) (MCF-7 tumor cells; 50 mg/kg daily oral, 21 days, measured day 21, 8 mice)
CCN1CCN(Cc2ccc(Nc3ncc(F)c(-c4cc(F)c5nc(C)n(C(C)C)c5c4)n3)nc2)CC1 [Abemaciclib, abemaciclib, reference compound] | 6.9 | 0.03 | 79.0 | 54.4 | 33.0 | 48.6 | – | – | – | – | – | – | –
CC1=Nc2c(F)cc(-c3nc(Nc4ccc(C5CCN(C)CC5)cn4)ncc3F)cc2C12CCCC2 [GLR2007] | 50.0 | – | – | – | 37.4 | 61.4 | 27.6 | 2020 | 86.3 | 50.0 | comparable | 43.5 | 49.6
